Experimental data as given in patent US20250197420A1, “MACROCYCLIC COMPOUNDS, COMPOSITIONS, AND METHODS OF USING THEREOF” (Sionna Therapeutics Inc., priority 2022, published 2025).

Key:
[1] = target: T1, Purified recombinant NBD1 (Homo sapiens, UniProt P13569); test: Aggregation analysis using differential static light scattering (DSLS): thermal stability of NBD1; format: binding; conditions: NBD1 0.2 mg/ml; Tagg of compound well minus average Tagg of DMSO control wells
T1 construct: Purified recombinant NBD1 was produced using previously described methods; made in house
Outline: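 ΔTagg is compound-well aggregation temperature minus the DMSO-control mean, each Tagg being the inflection point of light scattering measured by DSLS during a 1 °C/min ramp up to 70 °C. The protein was purified NBD1 (0.2 mg/ml) in pH 7.6 buffer containing 2 mM ATP, 5 mM MgCl2 and 1% glycerol.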

[2] = test system: Primary human bronchial epithelial cells from a ΔF508 homozygous CF donor (CF-HBE cells); test: TECC24 recording of CFTR-mediated transepithelial chloride transport, AUC fold over benchmark VX-809 @10 μM; format: cell-based; conditions: 48 hours incubation, AUC of forskolin-stimulated IEQ
Outline: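 Values are the forskolin-to-inhibitor-172 AUC of equivalent Cl− current, derived from transepithelial voltage and resistance, divided by the VX-809 AUC and binned as A <3, B 3–6, C 6–20. Cells were pre-incubated with compound for 48 h at 36.5 °C; the bath (pH 7.4) received benzamil 10 μM, forskolin 10 μM, then CFTRinh-172 20 μM.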

T1 sequence (P13569 423-646 limits assumed): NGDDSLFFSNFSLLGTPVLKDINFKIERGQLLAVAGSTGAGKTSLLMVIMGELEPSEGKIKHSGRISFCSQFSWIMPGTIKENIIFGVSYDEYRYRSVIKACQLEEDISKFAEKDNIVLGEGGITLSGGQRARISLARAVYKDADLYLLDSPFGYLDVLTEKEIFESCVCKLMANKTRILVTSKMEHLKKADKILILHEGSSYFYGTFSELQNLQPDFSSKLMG

Compound | DSLS (ΔTagg) [1] | TECC (test agent AUC divided by VX-809 AUC) [2]
CC1(C)CCOCC(c2cccc(CCC(=O)O)c2)n2ccc(n2)-c2cc(ccc2F)Oc2c(F)cc3[nH]ccc3c2COC(=O)N1 (single isomer, unassigned) [Compound 96A, 3-[3-(23,29-difluoro-11,11-dimethyl-13-oxo-8,14,25-trioxa-5,12,20,31-tetrazapentacyclo[24.3.1.12,5.016,24.017,21]hentriaconta-1(30),2(31),3,16,18,21,23,26,28-nonaen-6-yl)phenyl]propanoic acid] | C (a value greater than 10 °C and less than or equal to 25 °C is marked “C”) | B (a value between 3 and 6 is marked “B”)
CC1(C)CCOCC(c2cccc(CCC(=O)O)c2)n2ccc(n2)-c2cc(ccc2F)Oc2c(F)cc3[nH]ccc3c2COC(=O)N1 (single isomer, unassigned) [Compound 96B, 3-[3-(23,29-difluoro-11,11-dimethyl-13-oxo-8,14,25-trioxa-5,12,20,31-tetrazapentacyclo[24.3.1.12,5.016,24.017,21]hentriaconta-1(30),2(31),3,16,18,21,23,26,28-nonaen-6-yl)phenyl]propanoic acid] | C (a value greater than 10 °C and less than or equal to 25 °C is marked “C”) | C (a value between 6 and 20 is marked “C”)
Cn1nc2nc1-c1cc(ccc1F)Oc1c(F)cc3[nH]ccc3c1COC(=O)NC(C)(C)CCCCC2c1cccc(CCC(=O)O)c1 (single isomer, unassigned) [Compound 97A, 3-[3-(23,29-difluoro-3,11,11-trimethyl-13-oxo-14,25-dioxa-3,4,12,20,31-pentazapentacyclo-[24.3.1.12,5.016,24.017,21]hentriaconta-1(30),2(31),4,16,18,21,23,26,28-nonaen-6-yl)phenyl]propanoic acid] | C (a value greater than 10 °C and less than or equal to 25 °C is marked “C”) | B (a value between 3 and 6 is marked “B”)
Cn1nc2nc1-c1cc(ccc1F)Oc1c(F)cc3[nH]ccc3c1COC(=O)NC(C)(C)CCCCC2c1cccc(CCC(=O)O)c1 (single isomer, unassigned) [Compound 97B, 3-[3-(23,29-difluoro-3,11,11-trimethyl-13-oxo-14,25-dioxa-3,4,12,20,31-pentazapentacyclo-[24.3.1.12,5.016,24.017,21]hentriaconta-1(30),2(31),4,16,18,21,23,26,28-nonaen-6-yl)phenyl]propanoic acid] | C (a value greater than 10 °C and less than or equal to 25 °C is marked “C”) | B (a value between 3 and 6 is marked “B”)
Cn1nc2nc1-c1cc(ccc1F)Oc1c(F)cc3[nH]ccc3c1CCNC(=O)OCC(C)(C)CC[C@@]2(C)c1cccc(CCC(=O)O)c1 (single isomer, unassigned) [Compound 98A] | C (a value greater than 10 °C and less than or equal to 25 °C is marked “C”) | C (a value between 6 and 20 is marked “C”)
Cn1nc2nc1-c1cc(ccc1F)Oc1c(F)cc3[nH]ccc3c1CCNC(=O)OCC(C)(C)CC[C@@]2(C)c1cccc(CCC(=O)O)c1 (single isomer, unassigned) [Compound 98B] | A (an ΔTagg value less than or equal to 5 °C is marked “A”) | B (a value between 3 and 6 is marked “B”)
Cn1nc2nc1-c1cc(ccc1F)Oc1c(F)cc3[nH]ccc3c1COC(=O)NC(C)(C)CCCC2(C)c1cccc(CCC(=O)O)c1 (single isomer, unassigned) [Compound 99A, 3-[3-(22,28-difluoro-3,6,10,10-tetramethyl-12-oxo-13,24-dioxa-3,4,11,19,30-pentazapentacyclo-[23.3.1.12,5.015,23.016,20]-triaconta-1(29),2(30),4,15,17,20,22,25,27-nonaen-6-yl)phenyl]propanoic acid] | C (a value greater than 10 °C and less than or equal to 25 °C is marked “C”) | B (a value between 3 and 6 is marked “B”)
Cn1nc2nc1-c1cc(ccc1F)Oc1c(F)cc3[nH]ccc3c1COC(=O)NC(C)(C)CCCC2(C)c1cccc(CCC(=O)O)c1 (single isomer, unassigned) [Compound 99B, 3-[3-(22,28-difluoro-3,6,10,10-tetramethyl-12-oxo-13,24-dioxa-3,4,11,19,30-pentazapentacyclo-[23.3.1.12,5.015,23.016,20]-triaconta-1(29),2(30),4,15,17,20,22,25,27-nonaen-6-yl)phenyl]propanoic acid] | A (an ΔTagg value less than or equal to 5 °C is marked “A”) | B (a value between 3 and 6 is marked “B”)
Cn1nc2nc1-c1cc(ccc1F)Oc1c(F)cc3[nH]ccc3c1COC(=O)NC(C)(C)COCCC2(C)c1cccc(CCC(=O)O)c1 (single isomer, unassigned) [Compound 100A, 3-[3-(23,29-difluoro-3,6,11,11-tetramethyl-13-oxo-9,14,25-trioxa-3,4,12,20,31-pentazapentacyclo-[24.3.1.12,5.016,24.017,21]hentriaconta-1(30),2(31),4,16,18,21,23,26,28-nonaen-6-yl)phenyl]propanoic acid] | C (a value greater than 10 °C and less than or equal to 25 °C is marked “C”) | C (a value between 6 and 20 is marked “C”)
Cn1nc2nc1-c1cc(ccc1F)Oc1c(F)cc3[nH]ccc3c1COC(=O)NC(C)(C)COCCC2(C)c1cccc(CCC(=O)O)c1 (single isomer, unassigned) [Compound 100B, 3-[3-(23,29-difluoro-3,6,11,11-tetramethyl-13-oxo-9,14,25-trioxa-3,4,12,20,31-pentazapentacyclo-[24.3.1.12,5.016,24.017,21]hentriaconta-1(30),2(31),4,16,18,21,23,26,28-nonaen-6-yl)phenyl]propanoic acid] | A (an ΔTagg value less than or equal to 5 °C is marked “A”) | C (a value between 6 and 20 is marked “C”)
CC(Cc1cccc(C2(C)CCCCC(C)(C)NC(=O)OCc3c(c(F)cc4[nH]ccc34)Oc3ccc(F)c(c3)-c3nc2nn3C)c1)C(=O)O (single isomer, unassigned) [Compound 101A, 3-[3-(23,29-difluoro-3,6,11,11-tetramethyl-13-oxo-14,25-dioxa-3,4,12,20,31-pentazapentacyclo[24.3.1.12,5.016,24.017,21]-hentriaconta-1(30),2(31),4,16,18,21,23,26,28-nonaen-6-yl)phenyl]-2-methyl-propanoic acid] | C (a value greater than 10 °C and less than or equal to 25 °C is marked “C”) | B (a value between 3 and 6 is marked “B”)
CC(Cc1cccc(C2(C)CCCCC(C)(C)NC(=O)OCc3c(c(F)cc4[nH]ccc34)Oc3ccc(F)c(c3)-c3nc2nn3C)c1)C(=O)O (single isomer, unassigned) [Compound 101B, 3-[3-(23,29-difluoro-3,6,11,11-tetramethyl-13-oxo-14,25-dioxa-3,4,12,20,31-pentazapentacyclo[24.3.1.12,5.016,24.017,21]-hentriaconta-1(30),2(31),4,16,18,21,23,26,28-nonaen-6-yl)phenyl]-2-methyl-propanoic acid] | A (an ΔTagg value less than or equal to 5 °C is marked “A”) | A (a TECC value less than 3 is marked “A”)
C[C@@H](Cc1cccc(C2(C)CCCC(C)(C)N(C)S(=O)(=O)CCc3c(c(F)cc4[nH]ccc34)Oc3ccc(F)c(c3)-c3nc2nn3C)c1)C(=O)O (single isomer, unassigned) [Compound 117A] | B (a value above 5 °C and less than or equal to 10 °C is marked “B”) | A (a TECC value less than 3 is marked “A”)
C[C@@H](Cc1cccc(C2(C)CCCC(C)(C)N(C)S(=O)(=O)CCc3c(c(F)cc4[nH]ccc34)Oc3ccc(F)c(c3)-c3nc2nn3C)c1)C(=O)O (single isomer, unassigned) [Compound 117B] | C (a value greater than 10 °C and less than or equal to 25 °C is marked “C”) | B (a value between 3 and 6 is marked “B”)
O=C(O)CCc1cccc(C2CCCCNC(=O)CCc3c(c(F)cc4[nH]ccc34)Oc3ccc(F)c(c3)-c3ncc2[nH]3)c1 (centres unmarked) [Compound 3, 3-[3-(22,28-Difluoro-12-oxo-24-oxa-3,11,19,30-tetrazapentacyclo-[23.3.1.12,5.015,23.016,20]triaconta-1(29),2,4,15,17,20,22,25,27-nonaen-6-yl)phenyl]-propanoic acid] | C (a value greater than 10 °C and less than or equal to 25 °C is marked “C”) | B (a value between 3 and 6 is marked “B”)
O=C(O)CCc1cccc(C2CCCCCCNC(=O)CCc3c(c(F)cc4[nH]ccc34)Oc3ccc(F)c(c3)-c3ncc2[nH]3)c1 (centres unmarked) [Compound 4, 3-[3-(24,30-Difluoro-14-oxo-26-oxa-3,13,21,32-tetrazapentacyclo-[25.3.1.12,5.017,25.018,22]dotriaconta-1(31),2,4,17,19,22,24,27,29-nonaen-6-yl)phenyl]propanoic acid] | C (a value greater than 10 °C and less than or equal to 25 °C is marked “C”) | B (a value between 3 and 6 is marked “B”)
